Activity calls are given as the source filed them.
Columns and labels:
[1] = inhibition of mouse IRAP aminopeptidase activity – biochemical, Leu-AMC fluorescence, cherry-picked samples, set 2, selectivity assay for ERAP1 modulator project, dose response (AID 743340)
[2] = target: Metabotropic glutamate receptor 5 (Rattus norvegicus, UniProt P31424); experiment: Identification of a glycine sulfonamide based non-MPEP site positive allosteric potentiator (PAM) of mGlu5 (calcium_assay).; assay type: functional
Metabotropic glutamate receptor 5, sequence (P31424 whole entry): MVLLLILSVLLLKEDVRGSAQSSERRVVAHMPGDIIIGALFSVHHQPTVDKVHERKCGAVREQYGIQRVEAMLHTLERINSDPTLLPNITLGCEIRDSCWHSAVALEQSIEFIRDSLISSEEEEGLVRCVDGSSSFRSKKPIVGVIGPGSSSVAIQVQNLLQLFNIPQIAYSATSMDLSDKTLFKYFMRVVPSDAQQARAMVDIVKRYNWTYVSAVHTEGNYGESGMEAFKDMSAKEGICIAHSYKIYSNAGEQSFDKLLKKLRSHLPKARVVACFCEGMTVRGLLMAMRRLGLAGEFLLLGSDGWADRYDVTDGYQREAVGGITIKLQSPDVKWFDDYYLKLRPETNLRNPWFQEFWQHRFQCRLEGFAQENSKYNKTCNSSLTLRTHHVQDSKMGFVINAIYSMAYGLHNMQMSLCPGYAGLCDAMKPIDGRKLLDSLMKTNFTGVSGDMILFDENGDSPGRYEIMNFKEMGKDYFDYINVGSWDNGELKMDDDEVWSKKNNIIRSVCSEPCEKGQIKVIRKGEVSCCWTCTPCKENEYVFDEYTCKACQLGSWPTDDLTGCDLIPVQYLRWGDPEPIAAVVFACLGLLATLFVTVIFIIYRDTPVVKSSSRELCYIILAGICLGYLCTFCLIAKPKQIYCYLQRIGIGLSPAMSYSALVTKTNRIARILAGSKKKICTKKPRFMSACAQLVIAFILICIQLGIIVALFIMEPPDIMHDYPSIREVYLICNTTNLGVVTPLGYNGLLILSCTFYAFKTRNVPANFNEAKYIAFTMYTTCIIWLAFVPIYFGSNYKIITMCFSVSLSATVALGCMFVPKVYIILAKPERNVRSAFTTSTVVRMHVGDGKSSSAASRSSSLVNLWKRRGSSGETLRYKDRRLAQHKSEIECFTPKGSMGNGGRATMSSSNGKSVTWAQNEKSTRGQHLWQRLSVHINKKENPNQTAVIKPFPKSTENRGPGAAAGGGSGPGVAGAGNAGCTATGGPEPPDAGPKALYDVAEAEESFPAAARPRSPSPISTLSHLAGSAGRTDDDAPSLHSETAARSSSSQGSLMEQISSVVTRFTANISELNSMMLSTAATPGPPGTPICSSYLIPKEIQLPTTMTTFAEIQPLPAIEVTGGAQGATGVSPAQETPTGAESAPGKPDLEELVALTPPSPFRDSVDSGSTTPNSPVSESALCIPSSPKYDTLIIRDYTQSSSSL

[3] = CellTiter-Glo luminescence survival assay, SW480 colon tumor line, concentration-response curve, half-maximal inhibitory concentration (AID 1117338); assay type: functional
[4] = RKO cell viability reduction, dose response, CellTiter-Glo luminescence (AID 1117322); assay type: functional
[5] = cytotoxicity toward HCT116 cells – cell-based, CellTiter-Glo luminescence, IC50, dose response (AID 1117332); assay type: functional; settings: HCT-116
[6] = SNU-C1 cell viability reduction, dose response, CellTiter-Glo luminescence (AID 1117323); assay type: functional, cell-based
[7] = cytotoxicity toward Colo320 cells – cell-based, CellTiter-Glo luminescence, IC50, dose response (AID 1117334); assay type: functional; settings: COLO 320
[8] = cytotoxicity toward HT-29 cells – cell-based, CellTiter-Glo luminescence, IC50, dose response (AID 1117330); assay type: functional
[9] = Reduced DLD-1 viability, concentration-response, CellTiter-Glo luminescence (AID 1117352); assay type: functional
[10] = HCT116 cell viability decrease, GSK3B pretreatment – CellTiter-Glo, IC50, dose response (AID 1117339); assay type: functional; settings: HCT-116
[11] = target: T1, Oxysterols receptor LXR-beta (Homo sapiens, UniProt P55055); assay type: functional, cell-based;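 also: Cell-based luminescence dose-response assay of agonist activity at LXR, run as a confirmatory counterscreen to a daf-12 agonist screen; HEK293 cells with Gal4-LXR fusion and GAL4-driven luciferase reporter; agonist potency from rising luciferase signal of a Gal4-LXR reporter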
T1 sequence (P55055 whole entry): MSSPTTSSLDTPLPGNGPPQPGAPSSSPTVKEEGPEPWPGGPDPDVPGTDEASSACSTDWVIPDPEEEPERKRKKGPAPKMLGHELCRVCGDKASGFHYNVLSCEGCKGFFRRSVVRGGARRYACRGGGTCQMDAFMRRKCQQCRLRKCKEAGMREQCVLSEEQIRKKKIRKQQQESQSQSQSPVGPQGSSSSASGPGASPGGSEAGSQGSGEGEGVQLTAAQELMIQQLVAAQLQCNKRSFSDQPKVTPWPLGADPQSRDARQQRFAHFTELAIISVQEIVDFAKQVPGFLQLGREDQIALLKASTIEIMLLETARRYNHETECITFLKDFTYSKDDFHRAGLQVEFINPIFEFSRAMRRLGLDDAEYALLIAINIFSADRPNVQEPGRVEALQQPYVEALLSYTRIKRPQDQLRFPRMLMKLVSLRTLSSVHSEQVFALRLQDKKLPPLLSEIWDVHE

[12] = mouse embryonic fibroblast toxicity – cell-based, plate reader, dry powder, set 2, cytotoxicity control, dose response (AID 652280); assay type: functional; settings: NIH3T3
[13] = T. cruzi growth inhibition in host cells, dose response, cell-based, plate reader, dry powder, set 2 (AID 652275); assay type: functional
[14] = anti-trypanosomal activity in BESM host cells – imaging, CA-I/72 strain, bovine embryo skeletal muscle, dry powder, dose response (AID 651885); assay type: functional, cell-based
[15] = target: Disintegrin and metalloproteinase domain-containing protein 17 (Homo sapiens, UniProt P78536); experiment: exosite inhibitors of ADAM17, dose response, biochemical (AID 743260)
[16] = inhibition of ADAM10 peptide cleavage – biochemical, FRET peptide substrate, recombinant human ADAM10, selectivity assay for ADAM17 exosite inhibitor project, dose response (AID 743259);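 also: ADAM10 enzyme cleaving a FRET peptide substrate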
[17] = target: T2, Carboxy-terminal domain RNA polymerase II polypeptide A small phosphatase 1 (Homo sapiens, UniProt Q9GZU7); experiment: CTDSP1 inhibitors, concentration-response, biochemical, absorbance readout, ultra-high-throughput screen actives (AID 540297); assay type: functional
T2 sequence (Q9GZU7 whole entry): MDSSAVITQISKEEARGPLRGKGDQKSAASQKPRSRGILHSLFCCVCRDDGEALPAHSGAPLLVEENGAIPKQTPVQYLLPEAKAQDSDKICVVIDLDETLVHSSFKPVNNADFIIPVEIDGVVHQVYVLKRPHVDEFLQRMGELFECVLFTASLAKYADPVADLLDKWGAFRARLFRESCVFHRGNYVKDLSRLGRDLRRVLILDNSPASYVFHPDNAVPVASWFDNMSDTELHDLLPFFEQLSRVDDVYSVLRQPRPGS

[18] = target: 1-phosphatidylinositol 4,5-bisphosphate phosphodiesterase gamma-1 (Homo sapiens, UniProt P19174); experiment: Counterscreen for inhibitors of phospholipase C isozymes (PLC-B3): Fluorescence-based biochemical high throughput dose response assay to identify inhibitors of phospholipase C isozymes (PLC-gamma1).
1-phosphatidylinositol 4,5-bisphosphate phosphodiesterase gamma-1, sequence (P19174 whole entry): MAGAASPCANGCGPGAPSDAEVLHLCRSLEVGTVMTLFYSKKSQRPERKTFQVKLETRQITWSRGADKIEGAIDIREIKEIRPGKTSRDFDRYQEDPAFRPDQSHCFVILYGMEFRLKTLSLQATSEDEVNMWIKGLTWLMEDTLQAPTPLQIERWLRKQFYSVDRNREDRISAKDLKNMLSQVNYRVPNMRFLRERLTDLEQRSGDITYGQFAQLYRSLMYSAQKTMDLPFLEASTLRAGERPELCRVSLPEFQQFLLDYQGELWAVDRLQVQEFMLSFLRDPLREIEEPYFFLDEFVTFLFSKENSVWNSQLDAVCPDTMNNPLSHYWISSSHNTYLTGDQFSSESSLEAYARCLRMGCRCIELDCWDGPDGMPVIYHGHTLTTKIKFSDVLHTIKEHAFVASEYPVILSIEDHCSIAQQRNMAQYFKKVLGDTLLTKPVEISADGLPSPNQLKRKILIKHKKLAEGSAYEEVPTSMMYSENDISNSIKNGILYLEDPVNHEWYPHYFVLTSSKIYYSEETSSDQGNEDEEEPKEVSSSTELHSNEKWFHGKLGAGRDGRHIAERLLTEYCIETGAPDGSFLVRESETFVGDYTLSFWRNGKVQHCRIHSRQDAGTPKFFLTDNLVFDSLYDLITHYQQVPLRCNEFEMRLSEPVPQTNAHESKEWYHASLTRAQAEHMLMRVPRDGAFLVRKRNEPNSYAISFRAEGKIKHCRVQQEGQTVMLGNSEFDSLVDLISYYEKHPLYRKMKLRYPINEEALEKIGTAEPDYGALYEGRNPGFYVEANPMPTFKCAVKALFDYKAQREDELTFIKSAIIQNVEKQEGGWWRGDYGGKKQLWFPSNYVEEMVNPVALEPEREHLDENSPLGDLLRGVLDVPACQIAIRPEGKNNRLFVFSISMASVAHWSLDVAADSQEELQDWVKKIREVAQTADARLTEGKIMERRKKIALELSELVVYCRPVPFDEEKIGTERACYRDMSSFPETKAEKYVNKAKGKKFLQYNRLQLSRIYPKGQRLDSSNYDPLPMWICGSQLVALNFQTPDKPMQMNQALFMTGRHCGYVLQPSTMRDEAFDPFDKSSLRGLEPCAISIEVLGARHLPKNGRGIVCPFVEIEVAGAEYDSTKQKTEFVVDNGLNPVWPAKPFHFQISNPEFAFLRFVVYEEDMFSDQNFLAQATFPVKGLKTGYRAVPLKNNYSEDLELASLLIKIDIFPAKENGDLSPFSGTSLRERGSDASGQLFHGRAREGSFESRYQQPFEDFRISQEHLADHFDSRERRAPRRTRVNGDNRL

[19] = target: 1-phosphatidylinositol 4,5-bisphosphate phosphodiesterase beta-3 (Homo sapiens, UniProt Q01970); experiment: Fluorescence-based biochemical high throughput dose response assay to identify inhibitors of phospholipase C isozymes (PLC-B3).
1-phosphatidylinositol 4,5-bisphosphate phosphodiesterase beta-3, sequence (Q01970 whole entry): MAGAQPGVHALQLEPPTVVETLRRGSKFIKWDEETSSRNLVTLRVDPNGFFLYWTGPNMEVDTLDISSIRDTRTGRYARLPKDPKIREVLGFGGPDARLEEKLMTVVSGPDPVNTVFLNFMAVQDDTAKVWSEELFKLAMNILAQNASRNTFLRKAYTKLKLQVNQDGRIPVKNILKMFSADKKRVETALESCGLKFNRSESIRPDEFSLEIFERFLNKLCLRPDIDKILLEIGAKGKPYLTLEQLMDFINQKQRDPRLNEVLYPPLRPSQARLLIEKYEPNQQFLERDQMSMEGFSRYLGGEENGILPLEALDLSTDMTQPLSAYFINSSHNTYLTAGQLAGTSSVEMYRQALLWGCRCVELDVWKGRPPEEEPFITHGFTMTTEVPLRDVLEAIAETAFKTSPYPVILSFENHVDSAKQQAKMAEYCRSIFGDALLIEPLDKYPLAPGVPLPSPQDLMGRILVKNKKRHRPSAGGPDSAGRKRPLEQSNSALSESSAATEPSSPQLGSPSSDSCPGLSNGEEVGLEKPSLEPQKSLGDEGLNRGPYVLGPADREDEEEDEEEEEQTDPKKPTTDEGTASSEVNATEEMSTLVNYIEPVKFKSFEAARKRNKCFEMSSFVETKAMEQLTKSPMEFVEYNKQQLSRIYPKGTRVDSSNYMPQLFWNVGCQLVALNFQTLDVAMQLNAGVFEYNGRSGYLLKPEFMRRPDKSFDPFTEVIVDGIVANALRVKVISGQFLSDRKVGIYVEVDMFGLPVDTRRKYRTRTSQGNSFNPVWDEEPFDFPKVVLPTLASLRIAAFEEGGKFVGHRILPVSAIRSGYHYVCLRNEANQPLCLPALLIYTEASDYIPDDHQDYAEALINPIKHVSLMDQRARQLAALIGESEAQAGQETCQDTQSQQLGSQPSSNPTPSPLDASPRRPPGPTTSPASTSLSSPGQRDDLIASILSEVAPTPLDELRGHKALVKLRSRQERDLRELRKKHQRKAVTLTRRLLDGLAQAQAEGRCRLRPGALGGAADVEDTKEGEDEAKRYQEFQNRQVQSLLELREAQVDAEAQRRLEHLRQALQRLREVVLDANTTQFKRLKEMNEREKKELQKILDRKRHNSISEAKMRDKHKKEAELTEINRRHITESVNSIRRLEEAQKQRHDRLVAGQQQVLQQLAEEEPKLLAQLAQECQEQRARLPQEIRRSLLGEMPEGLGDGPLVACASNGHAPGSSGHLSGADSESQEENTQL

Kallikrein-7 = Kallikrein-7 (Homo sapiens, UniProt P49862); experiment: Fluorescence Intensity-based biochemical primary high throughput dose response assay to identify activators of kallikrein-7 (K7) zymogen.
[20] = target: T3, Heat shock factor protein 1 (Mus musculus, UniProt P38532); experiment: decrease of HSF1-responsive luciferase luminescence – cell-based, NIH3T3, dose retest, confirmation (AID 2382); assay type: functional;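 also: NIH3T3 fibroblasts with HSF1-driven luciferase reporter stressed by proteasome inhibitor MG132; luminescence from HSF1-driven luciferase expression after 8 hours of MG132 stress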
T3 sequence (P38532 whole entry): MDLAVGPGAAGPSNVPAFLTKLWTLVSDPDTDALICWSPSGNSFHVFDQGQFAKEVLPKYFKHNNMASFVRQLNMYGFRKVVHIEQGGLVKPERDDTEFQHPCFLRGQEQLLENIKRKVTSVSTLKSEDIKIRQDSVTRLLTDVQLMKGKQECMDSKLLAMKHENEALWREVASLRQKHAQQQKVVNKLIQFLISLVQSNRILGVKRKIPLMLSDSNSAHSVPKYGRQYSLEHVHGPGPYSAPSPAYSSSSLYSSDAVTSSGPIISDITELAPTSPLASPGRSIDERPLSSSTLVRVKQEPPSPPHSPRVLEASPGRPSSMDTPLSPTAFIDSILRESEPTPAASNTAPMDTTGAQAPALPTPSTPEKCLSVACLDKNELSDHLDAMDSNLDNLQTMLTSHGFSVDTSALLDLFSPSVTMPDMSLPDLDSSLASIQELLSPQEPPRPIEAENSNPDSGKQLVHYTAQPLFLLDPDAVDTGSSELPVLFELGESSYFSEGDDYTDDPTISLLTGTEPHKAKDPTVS

[21] = HEK-293T viability loss after treatment – luminescence, T-cell screen hits, cytotoxicity control for TCR NF-kB inhibitor project, dose response (AID 489026); assay type: functional, cell-based;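 also: cells exposed to compound about 14 hours before the viability readout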
[22] = reduction of Shn3 3'UTR-driven luciferase in osteoblasts – cell-based, Clone20 osteoblasts, firefly luciferase, cherry-picked, dose response (AID 624132); assay type: functional;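 also: firefly luciferase luminescence from reporter carrying the Shn3 3'UTR in osteoblasts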
[23] = loss of viability in HepG2 cells – cell-based, CellTiter-Glo, cherry-picked, cytotoxicity control for Shn3 inhibitor project, dose response (AID 624134); assay type: functional
Paired box protein Pax-8 = Paired box protein Pax-8 (Homo sapiens, UniProt Q06710); experiment: PAX8 transcriptional activity inhibition in RMG-I – RMG-I cells, luciferase, cherry-pick, dose response (AID 687027); assay type: functional, cell-based;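 also: luciferase reporter driven by Pax8 target thyroperoxidase promoter measured by SteadyGlo luminescence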
Paired box protein Pax-8, sequence (Q06710 whole entry): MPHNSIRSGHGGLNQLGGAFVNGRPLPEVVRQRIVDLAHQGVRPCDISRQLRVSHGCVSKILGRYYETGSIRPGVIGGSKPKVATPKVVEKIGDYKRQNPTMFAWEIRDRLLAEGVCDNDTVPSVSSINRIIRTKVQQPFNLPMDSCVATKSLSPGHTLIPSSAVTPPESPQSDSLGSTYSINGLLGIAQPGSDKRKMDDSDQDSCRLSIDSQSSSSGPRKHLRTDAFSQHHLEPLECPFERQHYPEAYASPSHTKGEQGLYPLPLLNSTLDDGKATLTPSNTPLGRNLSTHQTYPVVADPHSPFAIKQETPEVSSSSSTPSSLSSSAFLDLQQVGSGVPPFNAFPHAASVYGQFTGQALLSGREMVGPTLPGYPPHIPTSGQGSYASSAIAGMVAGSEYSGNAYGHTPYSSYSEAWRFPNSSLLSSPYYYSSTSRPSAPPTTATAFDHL

[24] = Shn3 3'UTR reporter signal decrease – cell-based, Clone20 osteoblasts, firefly luciferase, cherry-pick, set 2, Schnurri-3 inhibitor project, dose response (AID 720490); assay type: functional;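 also: actives lower the luminescence signal as inhibitors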
[25] = toxicity toward HepG2 liver cells – cell-based, plate reader, cherry-pick, antagonist series, cytotoxicity control, dose response (AID 743416); assay type: functional
[26] = blockers of bursicon-stimulated LGR2 cAMP reporter – cell-based, HEK293, CRE-luciferase reporter, cherry pick, set 2, dose response (AID 743343); assay type: functional;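 also: transfected cells were stimulated with diluted bursicon conditioned medium after compound addition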
[27] = blockade of melanocortin 4 receptor signaling – cell-based, plate reader, cherry pick, counter-screen for LGR2 antagonist project, dose response (AID 743444); assay type: functional;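 also: transfected HEK 293 cells stimulated with alpha-MSH peptide; potency of inhibitors of the alpha-MSH evoked signal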
[28] = viability loss in HEK293 cells – cell-based, plate reader, cherry-picked samples, cytotoxicity control, dose response (AID 743446); assay type: functional
[29] = HeLa cell viability loss – plate reader, dry powder, cytotoxicity control, dose response (AID 651946); assay type: functional, cell-based
[30] = target: T4, Potassium channel subfamily K member 9 (Homo sapiens, UniProt Q9NPC2); experiment: TASK3 channel blockers, electrophysiology – cell-based, automated electrophysiology, selectivity assay for TASK1 (KCNK3) inhibitor project, SAR follow-up (AID 652210); assay type: functional
T4 sequence (Q9NPC2 whole entry): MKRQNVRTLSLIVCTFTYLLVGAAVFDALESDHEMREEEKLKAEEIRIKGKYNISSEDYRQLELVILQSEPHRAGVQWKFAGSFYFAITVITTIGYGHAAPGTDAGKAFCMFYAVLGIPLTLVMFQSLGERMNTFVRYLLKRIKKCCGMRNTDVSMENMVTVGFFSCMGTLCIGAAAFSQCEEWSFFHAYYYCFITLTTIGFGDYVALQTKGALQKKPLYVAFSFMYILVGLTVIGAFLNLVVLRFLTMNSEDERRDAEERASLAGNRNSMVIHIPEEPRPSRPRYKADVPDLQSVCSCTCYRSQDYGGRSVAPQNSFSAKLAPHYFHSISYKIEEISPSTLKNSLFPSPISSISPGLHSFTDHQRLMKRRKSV

[31] = target: T4, Potassium channel subfamily K member 9; experiment: KCNK9 flux blockade, concentration-response – cell-based, FluxOR thallium flux, selectivity assay for TASK1 inhibitor project, SAR follow-up (AID 652211); assay type: functional;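 also: potency is for inhibitors of the channel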
[32] = target: Potassium channel subfamily K member 3 (Rattus norvegicus, UniProt O54912); experiment: SAR analysis for the identification of selective inhibitors of the two-pore domain potassium channel TASK1(KCNK3):Automated Electrophysiology.; assay type: functional
Potassium channel subfamily K member 3 (Rattus norvegicus, UniProt O54912), sequence (O54912 whole entry, the tested form may be a part): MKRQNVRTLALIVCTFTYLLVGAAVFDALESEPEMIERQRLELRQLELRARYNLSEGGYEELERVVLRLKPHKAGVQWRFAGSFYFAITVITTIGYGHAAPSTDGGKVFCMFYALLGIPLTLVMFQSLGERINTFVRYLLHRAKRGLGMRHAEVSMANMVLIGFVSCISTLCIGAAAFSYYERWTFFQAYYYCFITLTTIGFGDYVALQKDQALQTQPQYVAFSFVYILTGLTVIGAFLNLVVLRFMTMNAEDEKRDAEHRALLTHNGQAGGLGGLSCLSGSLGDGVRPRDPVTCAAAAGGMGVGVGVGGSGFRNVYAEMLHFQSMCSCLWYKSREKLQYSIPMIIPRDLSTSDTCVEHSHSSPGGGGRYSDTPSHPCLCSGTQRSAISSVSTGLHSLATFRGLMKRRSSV

[33] = target: Potassium channel subfamily K member 3 (Homo sapiens, UniProt O14649); experiment: inhibition of human KCNK3 channel flux – CHO cells, FluxOR thallium flux, SAR follow-up (AID 652212); assay type: functional
[34] = IC50 of insulin release inhibition, rat insulinoma INS-1E line, 5 mM glucose, cell-based (AID 1117331); assay type: functional
[35] = viability loss in HepG2 hepatoma cells – cell-based, cherry-picks, set 5, cytotoxicity control, dose response (AID 1053118); assay type: functional
[36] = viability loss in HEK293 kidney cells – cell-based, cherry-picks, set 5, cytotoxicity control, dose response (AID 1053117); assay type: functional
[37] = viability loss in A549 lung cancer cells – cell-based, cherry-picks, […], cytotoxicity control, dose response (AID 1053119); assay type: functional
[38] = P. falciparum Dd2 growth inhibitors, dose response, SYBR Green, cherry-picked samples (AID 1159567); assay type: functional, cell-based
[39] = toxicity to human hepatoma HepG2 cells – cell-based, cherry-picked samples, cytotoxicity control, dose response (AID 1159577); assay type: functional
[40] = rise of 2N DNA cells, HeLa – IC50, dose response (AID 1117349); assay type: functional, cell-based
[41] = rise of 4N DNA cells, HeLa – IC50, dose response (AID 1117351); assay type: functional, cell-based

CCCN(C)C[C@@H]1OCCCC[C@H](C)Oc2ccc(NC(=O)Nc3ccc(F)cc3)cc2C(=O)N([C@H](C)CO)C[C@@H]1C
AC50 [1]: 13.1 µM (active)

O=S(=O)(c1ccc(F)cc1)N1CCCC(c2nc(-c3ccc(F)cc3)no2)C1 (stereo unspecified)
EC50 [2]: 4.53 µM

CCOC(=O)c1ccccc1C(=O)OCC [DIETHYL PHTHALATE]
IC50 [3]: > 20 µM (inactive)
IC50 [4]: > 20 µM (inactive)
IC50 [5]: > 20 µM (inactive)
IC50 [6]: > 20 µM (inactive)
IC50 [7]: > 20 µM (inactive)
IC50 [8]: > 20 µM (inactive)
IC50 [9]: > 20 µM (inactive)
IC50 [10]: > 20 µM (inactive)

Cc1ccc(C2=Nc3ccccc3N=C(C(Cl)Cl)C2)cc1
EC50 [11]: > 67.5 µM (inactive)
EC50 (cells): > 67.5 µM (inactive)

C[C@@H]1CN([C@@H](C)CO)C(=O)c2cc(-c3ccncc3)cnc2O[C@H]1CN(C)Cc1ccc(Oc2ccccc2)cc1
AC50 [12]: 15.3 µM (active)
AC50 [13]: 2.93 µM (active)
IC50 [14]: > 20 µM (inactive)

Cc1ccccc1NC1=NC(=O)/C(=C/c2cccn2C)S1
IC50 [15]: > 69.5 µM (inactive)
IC50 [16]: > 69.5 µM (inactive)

Cc1cccc(NC(=O)Cn2c(O)c(N=NC(=O)c3ccccc3O)c3ccccc32)c1
IC50 [17]: 1.99 µM (active)
IC50 [18]: > 123 µM (inactive)
IC50 [19]: > 123 µM (inactive)

COc1ccc(C2Nc3ccccc3C(=O)N2NC(C)=O)c(OC)c1 (stereo unspecified)
EC50 (Kallikrein-7): 9.55 µM (active)

Cc1nc(SCC(=O)Nc2nc3ccccc3s2)c(C#N)c(C)c1C
EC50 [20]: < 0.16 µM (active)
IC50 [21]: > 80 µM (inactive)
AC50 [22]: < 0.26 µM (active)
AC50 [23]: > 70 µM (inactive)
AC50 (Paired box protein Pax-8): < 0.26 µM (active)
AC50 [24]: < 0.135 µM (active)
AC50 [25]: > 52 µM (inactive)
AC50 [26]: 0.0912 µM (active)
AC50 [27]: < 0.068 µM (active)
AC50 [28]: > 52 µM (inactive)

c1ccc(-c2nnc(SCc3cscn3)o2)cc1
AC50 [29]: > 52 µM (inactive)

CCOc1ccccc1C(=O)Nc1cccc(NC(=O)C2CCCC2)c1
IC50 [30]: 0.49 µM (active)
IC50 [31]: 1.11 µM (active)
IC50 [32]: 0.03 µM (active)
IC50 [33]: 0.108 µM (active)

CCCCN(CCCC)C(C(N)=O)c1ccc(OC)cc1 (stereo unspecified) [AMBUCETAMIDE]
IC50 [34]: > 33.3 µM (inactive)

CO[C@H]1CN(C)C(=O)c2ccc(NC(=O)c3ccc(-c4ccccc4)cc3)cc2OC[C@@H](C)NC[C@H]1C
AC50 [35]: 15.5 µM (active)
AC50 [36]: 20.5 µM (active)
AC50 [37]: 26.2 µM (active)
AC50 [38]: 6.23 µM (active)
AC50 [39]: 22 µM (active)

NCCCC[C@H](N[C@@H](CCc1ccccc1)C(=O)O)C(=O)N1CCC[C@H]1C(=O)O [LISINOPRIL]
IC50 [40]: > 10 µM (inactive)
IC50 [3]: 4.03 µM (active)
IC50 [4]: 8.88 µM (inactive)
IC50 [5]: 3.39 µM (active)
IC50 [6]: 2.53 µM (active)
IC50 [7]: > 20 µM (inactive)
IC50 [41]: > 10 µM (inactive)
IC50 [8]: > 6.67 µM (inactive)
IC50 [9]: 2.24 µM (active)

— ChEMBL document CHEMBL1201862, “PubChem BioAssay data set” (2004)
